Key:
bulrush [1] = assay: Test Example 4: low dosage test for rice paddy weeds; type: in vivo, Scirpus juncoides; details: 300 g/ha as an active ingredient; plants treated at the one leaf stage; 21 days after treatment; vs untreated control
Description: (§1) The standard of judgment for herbicidal efficacy (degree of growth inhibition) and phytotoxicity 4 . . . 90%-100% of herbicidal efficacy or phytotoxicity 3 . . . 70%-89% of herbicidal efficacy or phytotoxicity 2 . . . 40%-69% of herbicidal efficacy or phytotoxicity 1 . . . 1%-39% of herbicidal efficacy or phytotoxicity 0 . . . 0% of herbicidal efficacy or phytotoxicity
A 75 cm^2 plastic pot was filled with soil (clay loam) and planted seeds of bulrush which is a rice paddy weed. After covering the top with 75 cm^3 soil, the pot was filled with water so that the soil submerged under 5 cm depth of water and kept in a hot house. The test plants, at the one leaf stage, were treated with the solution of a formulation containing the compound of the present invention as an active ingredient at the predetermined effective dosage (300 g/ha as an active ingredient). The pots were kept in a hot house for 21 days after the treatment and the herbicidal efficacy was investigated and evaluated according to the standard in Test Example 1 by comparing with the untreated control. Further, as a comparative compound, the compound No. 6-28 described in the JP-A-2004-107322 was used.

bulrush [2] = assay: Test Example 1: herbicidal efficacy on rice paddy weeds pre-emergence; type: in vivo, Scirpus juncoides; details: dosage 1000 g/ha, 21 days
[3] = tested on: paddy rice plant (cultivar: Nihonbare); assay: Test Example 3: phytotoxicity test for transplanted paddy rice plant; type: in vivo; details: dosage 1000 g/ha; transplanted rice, treated 5 days after transplantation; 21 days after treatment
Method in brief: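 Clay loam soil was placed in a 75 cm^2 plastic pot and flooded to a water depth of 5 cm. Two Nihonbare paddy rice plants at the two-leaf stage were transplanted 1 cm deep and grown in a hot house. After treatment, pots stayed in the hot house for 21 days, and phytotoxicity was then graded against an untreated control.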

false pimpernel [4] = assay: Test Example 2: herbicidal efficacy on rice paddy weeds post-emergence; type: in vivo, Lindernia pyxidaria; details: dosage 1000 g/ha; post-emergence, one leaf stage; 21 days after treatment
false pimpernel [5] = assay: Test Example 1: herbicidal efficacy on rice paddy weeds pre-emergence; type: in vivo, Lindernia pyxidaria; details: dosage 1000 g/ha, 21 days
barnyard glass = assay: Test Example 2: herbicidal efficacy on rice paddy weeds post-emergence; type: in vivo, Echinochloa crus-galli; details: dosage 1000 g/ha; post-emergence, one leaf stage; 21 days after treatment
Method in brief: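 Efficacy on paddy weeds was scored on a 0 to 4 growth-inhibition scale: 4 for 90%-100%, 3 for 70%-89%, 2 for 40%-69%, 1 for 1%-39% and 0 for 0%. Barnyard glass was grown in clay loam in 75 cm^2 pots under 5 cm of water in a hot house. It was compared with untreated pots 21 days after treatment.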

[6] = tested on: transplanted paddy rice plant and Bulrush; assay: Test Example 5: selectivity between transplanted paddy rice plant and weeds; type: in vivo; details: (highest dosage with no phytotoxicity to paddy rice)/(lowest dosage with effective level 4 on Bulrush); rice 3000-100 g/ha, Bulrush 300-10 g/ha; 21 days
Protocol: as §1
Phytotoxicity test for transplanted paddy rice plants was carried out, as in Test Example 3, by the treatment of 3000, 1000, 300 and 100 (g/ha of the active ingredient) dosage, and herbicidal test to weed post-emergence was carried out to Burlush seeded as in Test Example 2 treating at 300, 100, 30 and 10 (g/ha) dosage. The pots were kept in a hot house for 21 days after the treatment, and the phytotoxicity and the herbicidal efficacy was investigated and evaluated according to the standard in Test Example 1 by comparing with the untreated control. […] Further, as a comparative compound, the compound No. 6-28 described in the JP-A-2004-107322 was used.

bulrush [7] = assay: Test Example 2: herbicidal efficacy on rice paddy weeds post-emergence; type: in vivo, Scirpus juncoides; details: dosage 1000 g/ha; post-emergence, one leaf stage; 21 days after treatment

Compound	Herbicide effect to Bulrush (bulrush [1])	Bulrush pre (herbicidal efficacy grade) (bulrush [2])	Phytotoxicity to paddy rice [3]	False pimpernel post (herbicidal efficacy grade) (false pimpernel [4])	False pimpernel pre (herbicidal efficacy grade) (false pimpernel [5])	Burnyard grass post (herbicidal efficacy grade) (barnyard glass)	Selective Index [6]	Bulrush post (herbicidal efficacy grade) (bulrush [7])
CCOC(=O)N(c1ccccc1CN1CC(C)(C)OC1=O)S(=O)(=O)C(F)(F)F [1-80]	4 (90%-100% of herbicidal efficacy or phytotoxicity)	4 (90%-100% of herbicidal efficacy or phytotoxicity)	2 (40%-69% of herbicidal efficacy or phytotoxicity)	4 (90%-100% of herbicidal efficacy or phytotoxicity)	4 (90%-100% of herbicidal efficacy or phytotoxicity)	4 (90%-100% of herbicidal efficacy or phytotoxicity)	30	4 (90%-100% of herbicidal efficacy or phytotoxicity)
CCC1(C)CN(Cc2ccccc2N(C(=O)OCC(C)(C)C)S(=O)(=O)C(F)(F)F)C(=O)O1 (racemic) [1-105]	4 (90%-100% of herbicidal efficacy or phytotoxicity)	4 (90%-100% of herbicidal efficacy or phytotoxicity)	1 (1%-39% of herbicidal efficacy or phytotoxicity)	4 (90%-100% of herbicidal efficacy or phytotoxicity)	4 (90%-100% of herbicidal efficacy or phytotoxicity)	4 (90%-100% of herbicidal efficacy or phytotoxicity)	10	4 (90%-100% of herbicidal efficacy or phytotoxicity)
CC1(C2(C)CN(Cc3ccccc3NS(=O)(=O)C(F)(F)F)C(=O)O2)CC1 (centres unmarked) [1-167]	4 (90%-100% of herbicidal efficacy or phytotoxicity)	4 (90%-100% of herbicidal efficacy or phytotoxicity)	1 (1%-39% of herbicidal efficacy or phytotoxicity)	4 (90%-100% of herbicidal efficacy or phytotoxicity)	4 (90%-100% of herbicidal efficacy or phytotoxicity)	4 (90%-100% of herbicidal efficacy or phytotoxicity)	≧10	4 (90%-100% of herbicidal efficacy or phytotoxicity)
COC(=O)N(c1ccccc1CN1C(=O)OCC1C)S(=O)(=O)C(F)(F)F (centres unmarked) [1-150]	4 (90%-100% of herbicidal efficacy or phytotoxicity)	4 (90%-100% of herbicidal efficacy or phytotoxicity)	2 (40%-69% of herbicidal efficacy or phytotoxicity)	4 (90%-100% of herbicidal efficacy or phytotoxicity)	4 (90%-100% of herbicidal efficacy or phytotoxicity)	4 (90%-100% of herbicidal efficacy or phytotoxicity)	10	4 (90%-100% of herbicidal efficacy or phytotoxicity)
CCC1(CC)CN(Cc2ccccc2NS(=O)(=O)C(F)(F)F)C(=O)O1 [1-61]	4 (90%-100% of herbicidal efficacy or phytotoxicity)	4 (90%-100% of herbicidal efficacy or phytotoxicity)	1 (1%-39% of herbicidal efficacy or phytotoxicity)	4 (90%-100% of herbicidal efficacy or phytotoxicity)	4 (90%-100% of herbicidal efficacy or phytotoxicity)	4 (90%-100% of herbicidal efficacy or phytotoxicity)	3	4 (90%-100% of herbicidal efficacy or phytotoxicity)
CC1(C)CN(Cc2ccccc2NS(=O)(=O)C(F)(F)F)C(=O)O1 [1-43]	4 (90%-100% of herbicidal efficacy or phytotoxicity)	4 (90%-100% of herbicidal efficacy or phytotoxicity)	2 (40%-69% of herbicidal efficacy or phytotoxicity)	4 (90%-100% of herbicidal efficacy or phytotoxicity)	4 (90%-100% of herbicidal efficacy or phytotoxicity)	4 (90%-100% of herbicidal efficacy or phytotoxicity)	10	4 (90%-100% of herbicidal efficacy or phytotoxicity)
CC(C)COC(=O)N(c1ccccc1CN1C(=O)OCC1C)S(=O)(=O)C(F)(F)F (centres unmarked) [1-4]	4 (90%-100% of herbicidal efficacy or phytotoxicity)	4 (90%-100% of herbicidal efficacy or phytotoxicity)	2 (40%-69% of herbicidal efficacy or phytotoxicity)	4 (90%-100% of herbicidal efficacy or phytotoxicity)	4 (90%-100% of herbicidal efficacy or phytotoxicity)	4 (90%-100% of herbicidal efficacy or phytotoxicity)	10	4 (90%-100% of herbicidal efficacy or phytotoxicity)
CC(C)OC(=O)N(c1ccccc1CN1CC(C)(C2CC2)OC1=O)S(=O)(=O)C(F)(F)F (racemic) [1-118]	4 (90%-100% of herbicidal efficacy or phytotoxicity)	4 (90%-100% of herbicidal efficacy or phytotoxicity)	1 (1%-39% of herbicidal efficacy or phytotoxicity)	4 (90%-100% of herbicidal efficacy or phytotoxicity)	4 (90%-100% of herbicidal efficacy or phytotoxicity)	4 (90%-100% of herbicidal efficacy or phytotoxicity)	30	4 (90%-100% of herbicidal efficacy or phytotoxicity)
CCCCCCCOC(=O)N(c1ccccc1CN1CC(C)(C)OC1=O)S(=O)(=O)C(F)(F)F [1-94]	4 (90%-100% of herbicidal efficacy or phytotoxicity)	4 (90%-100% of herbicidal efficacy or phytotoxicity)	1 (1%-39% of herbicidal efficacy or phytotoxicity)	4 (90%-100% of herbicidal efficacy or phytotoxicity)	4 (90%-100% of herbicidal efficacy or phytotoxicity)	4 (90%-100% of herbicidal efficacy or phytotoxicity)	≧30	4 (90%-100% of herbicidal efficacy or phytotoxicity)
COC(=O)N(c1ccccc1CN1CC(C)OC1=O)S(=O)(=O)C(F)(F)F (racemic) [1-54]	4 (90%-100% of herbicidal efficacy or phytotoxicity)	4 (90%-100% of herbicidal efficacy or phytotoxicity)	0 (0% of herbicidal efficacy or phytotoxicity)	–	4 (90%-100% of herbicidal efficacy or phytotoxicity)	4 (90%-100% of herbicidal efficacy or phytotoxicity)	33.3	4 (90%-100% of herbicidal efficacy or phytotoxicity)
COC(=O)N(c1ccccc1CN1CC(C2CC2)(C2CC2)OC1=O)S(=O)(=O)C(F)(F)F [1-172]	4 (90%-100% of herbicidal efficacy or phytotoxicity)	4 (90%-100% of herbicidal efficacy or phytotoxicity)	1 (1%-39% of herbicidal efficacy or phytotoxicity)	4 (90%-100% of herbicidal efficacy or phytotoxicity)	4 (90%-100% of herbicidal efficacy or phytotoxicity)	–	10	4 (90%-100% of herbicidal efficacy or phytotoxicity)

Source: patent US20080274892A1, “Novel Haloalkylsulfonanilide Derivative, Herbicide, and Method of Use Thereof” (priority 2005, published 2008)
